The values below are quoted from earlier work in patent publication US10285597B2 (dated 2019).

For this series the following is noted: TOL relative to TOSS (Ain=1 by definition); according to Bouillon et al., Anesthesiology 2004; 101: A503.

Structures are written as SMILES.

In the case of `CC(C)c1cccc(C(C)C)c1O` [propofol], the “C50 ratio of propofol for the tolerance of laryngoscopy as well as tolerance of shaking and loud shouting (stimulus intensity Ain for TOL)” value is 2.83.
